Source: US6391887B1, “3,4-Dihydroquinoline derivatives as nitrogen monoxide synthase (NOS) inhibitors” (Schering Aktiengesellschaft, priority 1998, dated 2002)

Target: bNOS (UniProt P29475)
Experiment: bNOS inhibition (method of Bredt and Snyder)
Type: biochemical
Excerpt: The NOS-inhibitory action of the compounds of Formula (I) and their physiologically compatible salts can be determined according to the methods by Bredt and Snyder in Proc. Natl. Acad. Sci. USA (1989) 86, 9030-9033.

## NC1=Nc2cc(N3CCOCC3)ccc2C2CCCC12 (centres unmarked) [Example 21, 4-Amino-7-(4-morpholinyl)-2,3,3a,9b-tetrahydro-1H-cyclopenta[c]quinoline]
  IC50: 1400 nM

## COC(=O)CCc1ccc2c(c1)N=C(N)C1CCCC21 (centres unmarked) [Example 22, 4-Amino-7-(methoxycarbonylethyl)-2,3,3a,9b-tetrahydro-1H-cyclopenta[c]quinoline]
  IC50: 1100 nM
